Test results published in patent US9546401B2, “Assays and methods for selecting a treatment regimen for a subject with depression” (The General Hospital Corporation, priority 2011, dated 2017).
Where two headings read alike, the source gives them in different places.

System: MDD patients carrying the indicated biomarkers
Protocol: Folate levels are classified as either low (<=2.5 ng/ml) or normal; and homocysteine levels as either normal or elevated (>=[…]). The presence or absence of at least one […] allele for the MTHFR gene are entered as a dichotomous variable (present or absent). […] Using folate as an example predicator, the presence or absence of a low serum-folate level along with treatment assignment can be entered in a 2×2, factorial ANOVA, using depression improvement scores (baseline minus endpoint HAM-D-17 scores) as the dependant variable. […] Similar analyses (i.e. separate 2×2 ANOVA's) can be performed substituting the presence of low folate levels for the presence of other predictors as described herein. Similarly, the effect of other predictors can be indicated by the interaction term representing the potential modulating influence of those variables.
The efficacy effect is determined by measuring the mean change in the HAMD-17 score and HAMD-28 score by the end of Phase I and Phase II, as compared to the baseline.

[1] = Phase II, BMI < 30 kg/m^2 and HNE-His < median
[2] = Phase II, BMI < 30 kg/m^2 and SAM/SAH >= median
[3] = Phase II, BMI >= 30 kg/m^2 and HNE-His >= median
[4] = Phase II, BMI*treat (interaction of BMI with the treatment)
[5] = Phase II, MTHFR 677 CC and BMI < 30 kg/m^2
[6] = Phase II, MTHFR 677 CT or TT and BMI >= 30 kg/m^2
[7] = Phase II, MTHFR 677 CT or TT and HNE-His >= median
[8] = Phase II, MTR 2756 AA and BMI < 30 kg/m^2
[9] = Phase II, MTR 2756 AA and HNE-His < median
[10] = Phase II, MTR 2756 AA and MTRR 66 AA
[11] = Phase II, MTR 2756 AA and MTRR 66 AA and SAM/SAH >= median
[12] = Phase II, MTR 2756 AA and SAM/SAH >= median
[13] = Phase II, MTR 2756 AG or GG and BMI >= 30 kg/m^2
[14] = Phase II, MTR 2756 AG or GG and MTRR 66 AG or GG
[15] = Phase II, MTR 2756 AG or GG and MTRR 66 AG or GG and HNE-His >= median
[16] = Phase II, MTRR 66 AA and SAM/SAH >= median
[17] = Phase II, MTRR 66 AG or GG and HNE-His >= median
[18] = Phase II, SAM/SAH < median and HNE-His >= median
[19] = Phase II, SAM/SAH >= median and HNE-His < median
[20] = Pooled phases, 25 =< BMI < 30 kg/m^2

SMILES: CN1c2c(nc(N)[nH]c2=O)NC[C@@H]1CNc1ccc(C(=O)N[C@@H](CCC(=O)O)C(=O)O)cc1 [6(S)-5-MTHF, 6(S)-5-methyltetrahydrofolate]
- Effect on change in HAMD-28 score (Phase II, BMI < 25): −2.300
- Effect on change in HAMD-17 score [1]: 3.667
- Effect on change in HAMD-28 score [1]: 1.833
- Effect on change in HAMD-17 score [2]: 1.500
- Effect on change in HAMD-28 score [2]: 2.500
- Effect on change in HAMD-17 score (Phase II, BMI >= 30 kg/m^2): −3.009
- Effect on change in HAMD-28 score (Phase II, BMI >= 30 kg/m^2): −3.245
- Effect on change in HAMD-17 score [3]: −4.233
- Effect on change in HAMD-28 score [3]: −4.933
- Effect on change in HAMD-17 score (Phase II, BMI >= 30 kg/m^2 and SAM/SAH < median): −9.200
- Effect on change in HAMD-28 score (Phase II, BMI >= 30 kg/m^2 and SAM/SAH < median = 2.71 (plasma)): −10.350
- Effect on change in HAMD-17 score [4]: 0.113
- Effect on change in HAMD-28 score [4]: 0.082
- Effect on change in HAMD-17 score [5]: −2.267
- Effect on change in HAMD-28 score [5]: −3.000
- Effect on change in HAMD-17 score (Phase II, MTHFR 677 CC and HNE-His < median): −0.857
- Effect on change in HAMD-28 score (Phase II, MTHFR 677 CC and HNE-His < median = 3.28 (plasma)): −0.536
- Effect on change in HAMD-17 score [6]: −7.333
- Effect on change in HAMD-28 score [6]: −8.667
- Effect on change in HAMD-17 score [7]: −7.500
- Effect on change in HAMD-28 score [7]: −7.500
- Effect on change in HAMD-17 score (Phase II, MTR 2756 AA): −0.427
- Effect on change in HAMD-28 score (Phase II, MTR 2756 AA): −0.446
- Effect on change in HAMD-17 score [8]: 1.167
- Effect on change in HAMD-28 score [8]: 0.917
- Effect on change in HAMD-17 score [9]: 0.300
- Effect on change in HAMD-28 score [9]: −0.125
- Effect on change in HAMD-17 score [10]: −8.000
- Effect on change in HAMD-28 score [10]: −8.000
- Effect on change in HAMD-17 score (Phase II, MTR 2756 AA and MTRR 66 AA and HNE-His < median): −8.667
- Effect on change in HAMD-28 score (Phase II, MTR 2756 AA and MTRR 66 AA and HNE-His < median = 3.28 (plasma)): −9.000
- Effect on change in HAMD-17 score [11]: −7.000
- Effect on change in HAMD-28 score [11]: −7.500
- Effect on change in HAMD-17 score [12]: 1.971
- Effect on change in HAMD-28 score [12]: 2.000
- Effect on change in HAMD-17 score [13]: −12.167
- Effect on change in HAMD-28 score [13]: −13.000
- Effect on change in HAMD-17 score (Phase II, MTR 2756 AG or GG and HNE-His >= median): −8.417
- Effect on change in HAMD-28 score (Phase II, MTR 2756 AG or GG and HNE-His >= median = 3.28 (plasma)): −9.500
- Effect on change in HAMD-17 score [14]: −4.667
- Effect on change in HAMD-28 score [14]: −6.583
- Effect on change in HAMD-17 score [15]: −11.000
- Effect on change in HAMD-28 score [15]: −12.000
- Effect on change in HAMD-17 score (Phase II, MTR 2756 AG or GG and MTRR 66 AG or GG and SAM/SAH < median): −6.500
- Effect on change in HAMD-28 score (Phase II, MTR 2756 AG or GG and MTRR 66 AG or GG and SAM/SAH < median = 2.71 (plasma)): −10.500
- Effect on change in HAMD-17 score (Phase II, MTR 2756 AG or GG and SAM/SAH < median): −2.500
- Effect on change in HAMD-28 score (Phase II, MTR 2756 AG or GG and SAM/SAH < median = 2.71 (plasma)): −7.500
- Effect on change in HAMD-17 score (Phase II, MTR 2756 AG/GG): −3.600
- Effect on change in HAMD-28 score (Phase II, MTR 2756 AG/GG): −5.300
- Effect on change in HAMD-17 score (Phase II, MTRR 66 AA and HNE-His < median): −1.667
- Effect on change in HAMD-28 score (Phase II, MTRR 66 AA and HNE-His < median = 3.28 (plasma)): −2.000
- Effect on change in HAMD-17 score [16]: −3.000
- Effect on change in HAMD-28 score [16]: −3.333
- Effect on change in HAMD-17 score [17]: −3.500
- Effect on change in HAMD-28 score [17]: −4.071
- Effect on change in HAMD-17 score (Phase II, MTRR 66 AG or GG and SAM/SAH < median): −6.190
- Effect on change in HAMD-28 score (Phase II, MTRR 66 AG or GG and SAM/SAH < median = 2.71 (plasma)): −7.381
- Effect on change in HAMD-17 score [18]: −9.000
- Effect on change in HAMD-28 score [18]: −12.000
- Effect on change in HAMD-17 score [19]: 4.000
- Effect on change in HAMD-28 score [19]: 4.500
- Effect on change in HAMD-28 score (Phase II, SAM/SAH*treat, first line under HAMD28): 1.483
- Effect on change in HAMD-17 score (Phase II, baseHAMD-17*treat (interaction of base HAMD-17 with the treatment)): −0.249
- Effect on change in HAMD-17 score [20]: 3.331
- Effect on change in HAMD-28 score [20]: 2.054
- Effect on change in HAMD-17 score (Pooled phases, BMI < 25): −1.248
